Source: ChEMBL document CHEMBL1201862, “PubChem BioAssay data set” (2004)
Calls of active or inactive are those of the source.

Assays:
[1] = target: Cytochrome P450 2D6 (Homo sapiens, UniProt P10635);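 further: CYP2D6 member of a cytochrome P450 panel assay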
[2] = target: T1, Corticotropin-releasing factor receptor 2/Corticotropin-releasing factor-binding protein (Homo sapiens, UniProt P24387+Q13324); assay: Dose Response confirmation of uHTS hits for small molecule antagonists of the CRF-binding protein and CRF-R2 receptor complex.; format: functional; conditions: read-out: IC50_Mean
T1 sequence (Q13324 whole entry): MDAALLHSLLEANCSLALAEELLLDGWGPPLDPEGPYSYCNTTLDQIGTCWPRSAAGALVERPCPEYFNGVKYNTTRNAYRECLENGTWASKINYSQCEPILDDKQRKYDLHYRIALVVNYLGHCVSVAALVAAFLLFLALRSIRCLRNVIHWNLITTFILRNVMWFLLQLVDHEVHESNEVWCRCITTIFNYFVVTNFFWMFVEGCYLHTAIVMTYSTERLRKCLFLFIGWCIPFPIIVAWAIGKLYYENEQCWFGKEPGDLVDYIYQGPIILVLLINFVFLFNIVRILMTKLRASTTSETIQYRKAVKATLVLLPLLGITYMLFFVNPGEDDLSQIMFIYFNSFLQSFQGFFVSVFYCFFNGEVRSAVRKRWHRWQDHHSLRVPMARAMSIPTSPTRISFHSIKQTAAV
T1 sequence (P24387 whole entry): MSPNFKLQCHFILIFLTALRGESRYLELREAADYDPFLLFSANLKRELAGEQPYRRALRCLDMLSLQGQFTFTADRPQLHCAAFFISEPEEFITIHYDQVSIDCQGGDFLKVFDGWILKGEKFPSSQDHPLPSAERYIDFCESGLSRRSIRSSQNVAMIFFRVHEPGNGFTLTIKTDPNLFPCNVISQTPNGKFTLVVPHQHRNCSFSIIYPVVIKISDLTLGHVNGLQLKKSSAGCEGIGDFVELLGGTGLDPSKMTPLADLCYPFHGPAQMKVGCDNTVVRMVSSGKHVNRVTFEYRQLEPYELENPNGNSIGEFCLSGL

[3] = target: T1, Corticotropin-releasing factor receptor 2/Corticotropin-releasing factor-binding protein; assay: activators of CRF receptor 2 with binding protein – uHTS hits, confirmation (AID 602473); format: functional; conditions: read-out: EC50_Mean
[4] = system: Streptococcus sp. 'group A'; assay: growth inhibition of control SK(-) GAS strain, dose response, counter-screen for streptokinase expression inhibitor project, luminescence, kanamycin, BacTiterGlo, confirmation (AID 1900); format: functional, organism-based
[5] = system: Streptococcus; assay: Group A Streptococcus viability loss, dose response, counter-screen for streptokinase expression inhibitor project, luminescence, BacTiterGlo (AID 1915); format: functional, organism-based;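 further: potency for reduction of bacterial viability or growth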
[6] = cells; format: functional
[7] = target: Cytochrome P450 2C19 (Homo sapiens, UniProt P33261); assay: Cytochrome panel assay with activity outcomes. Panel member name: p450-cyp2c19 Compounds with AC50 equal or less than 10 uM are considered active; format: functional; conditions: read-out: AC50
Chain of Cytochrome P450 2C19 (P33261 whole entry): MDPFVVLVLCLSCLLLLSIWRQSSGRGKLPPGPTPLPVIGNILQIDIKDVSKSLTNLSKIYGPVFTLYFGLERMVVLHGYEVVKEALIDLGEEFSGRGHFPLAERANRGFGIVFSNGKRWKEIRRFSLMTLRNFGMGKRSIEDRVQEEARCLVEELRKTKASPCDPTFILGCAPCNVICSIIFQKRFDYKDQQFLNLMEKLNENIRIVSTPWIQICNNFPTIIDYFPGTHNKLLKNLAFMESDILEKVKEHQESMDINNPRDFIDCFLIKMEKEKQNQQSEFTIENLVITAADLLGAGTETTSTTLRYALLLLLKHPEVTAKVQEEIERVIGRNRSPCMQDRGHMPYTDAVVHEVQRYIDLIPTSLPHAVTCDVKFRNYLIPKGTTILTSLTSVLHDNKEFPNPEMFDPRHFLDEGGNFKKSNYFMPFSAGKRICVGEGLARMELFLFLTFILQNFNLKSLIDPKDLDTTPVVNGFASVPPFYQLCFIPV

[8] = target: T2, Cytochrome P450 1A2 (Homo sapiens, UniProt P05177);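 further: PubChem cytochrome P450 panel assay, CYP1A2 panel member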
T2 sequence (P05177 whole entry): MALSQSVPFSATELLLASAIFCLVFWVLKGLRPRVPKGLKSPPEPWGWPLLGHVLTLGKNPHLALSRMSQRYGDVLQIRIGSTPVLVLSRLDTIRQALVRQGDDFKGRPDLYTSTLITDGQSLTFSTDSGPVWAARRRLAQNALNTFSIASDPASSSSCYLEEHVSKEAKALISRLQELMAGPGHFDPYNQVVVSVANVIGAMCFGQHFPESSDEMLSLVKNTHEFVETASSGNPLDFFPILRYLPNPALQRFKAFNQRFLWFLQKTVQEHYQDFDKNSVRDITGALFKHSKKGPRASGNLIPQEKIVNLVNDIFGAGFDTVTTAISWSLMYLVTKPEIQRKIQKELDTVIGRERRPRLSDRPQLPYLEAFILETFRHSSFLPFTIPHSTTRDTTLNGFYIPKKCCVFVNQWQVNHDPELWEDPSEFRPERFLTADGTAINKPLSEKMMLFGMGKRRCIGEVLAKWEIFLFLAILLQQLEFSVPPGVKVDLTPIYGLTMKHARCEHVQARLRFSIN

[9] = target: Cytochrome P450 3A4 (Homo sapiens, UniProt P08684);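 further: CYP3A4 tested as one member of a cytochrome P450 panel screen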
Chain of Cytochrome P450 3A4 (P08684 whole entry): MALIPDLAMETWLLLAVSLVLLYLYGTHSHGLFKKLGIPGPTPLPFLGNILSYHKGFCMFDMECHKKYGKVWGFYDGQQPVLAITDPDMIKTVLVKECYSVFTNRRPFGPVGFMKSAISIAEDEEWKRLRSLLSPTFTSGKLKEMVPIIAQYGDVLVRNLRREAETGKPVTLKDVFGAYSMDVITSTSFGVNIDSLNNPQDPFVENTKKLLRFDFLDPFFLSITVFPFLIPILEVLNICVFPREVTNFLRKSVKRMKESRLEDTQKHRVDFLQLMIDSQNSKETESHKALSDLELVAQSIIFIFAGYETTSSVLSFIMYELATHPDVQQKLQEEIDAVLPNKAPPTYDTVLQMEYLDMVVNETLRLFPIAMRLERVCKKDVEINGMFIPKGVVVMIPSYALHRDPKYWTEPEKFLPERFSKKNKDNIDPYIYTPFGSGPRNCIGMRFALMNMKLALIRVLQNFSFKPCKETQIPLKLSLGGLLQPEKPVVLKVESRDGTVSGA

[10] = target: Cytochrome P450 2C9 (Homo sapiens, UniProt P11712)
Chain of Cytochrome P450 2C9 (P11712 whole entry): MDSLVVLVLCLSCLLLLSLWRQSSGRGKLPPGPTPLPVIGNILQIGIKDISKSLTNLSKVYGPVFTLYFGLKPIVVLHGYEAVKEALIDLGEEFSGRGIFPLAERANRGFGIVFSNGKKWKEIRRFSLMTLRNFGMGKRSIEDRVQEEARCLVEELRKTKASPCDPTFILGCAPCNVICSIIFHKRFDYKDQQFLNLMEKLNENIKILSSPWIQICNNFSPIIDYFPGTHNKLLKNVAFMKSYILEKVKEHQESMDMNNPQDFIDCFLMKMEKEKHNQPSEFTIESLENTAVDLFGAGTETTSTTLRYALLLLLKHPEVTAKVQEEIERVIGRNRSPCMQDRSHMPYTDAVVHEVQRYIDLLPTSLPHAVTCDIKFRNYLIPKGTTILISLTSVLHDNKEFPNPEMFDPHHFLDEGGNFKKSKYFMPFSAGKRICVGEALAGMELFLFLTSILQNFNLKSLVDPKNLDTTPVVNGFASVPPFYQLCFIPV

[11] = target: T3, Replicative DNA helicase DnaB (Mycobacterium tuberculosis, UniProt P9WMR3); assay: DnaB intein splicing inhibitors, dose response, biochemical, cell-free fluorescence (AID 449749); format: functional
T3 sequence (P9WMR3 whole entry): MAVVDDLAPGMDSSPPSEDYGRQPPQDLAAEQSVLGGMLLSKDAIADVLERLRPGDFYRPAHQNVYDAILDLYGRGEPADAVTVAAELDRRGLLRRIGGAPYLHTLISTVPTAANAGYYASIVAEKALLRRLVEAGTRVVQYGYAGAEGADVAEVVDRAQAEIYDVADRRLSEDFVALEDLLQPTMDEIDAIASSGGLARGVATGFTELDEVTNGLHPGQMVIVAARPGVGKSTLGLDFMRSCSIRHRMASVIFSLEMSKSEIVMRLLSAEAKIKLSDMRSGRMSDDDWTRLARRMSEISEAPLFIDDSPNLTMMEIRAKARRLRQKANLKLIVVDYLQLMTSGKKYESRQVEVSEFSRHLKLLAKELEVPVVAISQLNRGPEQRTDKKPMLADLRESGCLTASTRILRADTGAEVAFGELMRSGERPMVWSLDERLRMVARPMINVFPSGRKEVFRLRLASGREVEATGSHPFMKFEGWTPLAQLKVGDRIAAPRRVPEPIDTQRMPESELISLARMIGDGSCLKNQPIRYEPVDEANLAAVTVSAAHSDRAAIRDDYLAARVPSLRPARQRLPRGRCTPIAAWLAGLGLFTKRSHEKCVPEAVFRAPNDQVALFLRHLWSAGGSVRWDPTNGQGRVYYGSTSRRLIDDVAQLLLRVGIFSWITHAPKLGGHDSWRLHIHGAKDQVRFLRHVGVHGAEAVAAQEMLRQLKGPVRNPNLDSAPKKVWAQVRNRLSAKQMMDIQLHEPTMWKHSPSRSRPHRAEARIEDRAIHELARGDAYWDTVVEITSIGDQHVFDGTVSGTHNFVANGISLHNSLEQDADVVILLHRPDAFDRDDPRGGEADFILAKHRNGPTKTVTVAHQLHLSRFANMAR

[12] = target: T4, Protein RecA (Mycobacterium tuberculosis, UniProt P9WHJ3); assay: Fluorescence Cell-Free Homogeneous Dose Retest to Identify Inhibitors of RecA-Intein Splicing Activity. [Related pubchem assays (depositor defined):AID2097, AID2223, AID489010, AID492950]; format: functional
T4 sequence (P9WHJ3 whole entry): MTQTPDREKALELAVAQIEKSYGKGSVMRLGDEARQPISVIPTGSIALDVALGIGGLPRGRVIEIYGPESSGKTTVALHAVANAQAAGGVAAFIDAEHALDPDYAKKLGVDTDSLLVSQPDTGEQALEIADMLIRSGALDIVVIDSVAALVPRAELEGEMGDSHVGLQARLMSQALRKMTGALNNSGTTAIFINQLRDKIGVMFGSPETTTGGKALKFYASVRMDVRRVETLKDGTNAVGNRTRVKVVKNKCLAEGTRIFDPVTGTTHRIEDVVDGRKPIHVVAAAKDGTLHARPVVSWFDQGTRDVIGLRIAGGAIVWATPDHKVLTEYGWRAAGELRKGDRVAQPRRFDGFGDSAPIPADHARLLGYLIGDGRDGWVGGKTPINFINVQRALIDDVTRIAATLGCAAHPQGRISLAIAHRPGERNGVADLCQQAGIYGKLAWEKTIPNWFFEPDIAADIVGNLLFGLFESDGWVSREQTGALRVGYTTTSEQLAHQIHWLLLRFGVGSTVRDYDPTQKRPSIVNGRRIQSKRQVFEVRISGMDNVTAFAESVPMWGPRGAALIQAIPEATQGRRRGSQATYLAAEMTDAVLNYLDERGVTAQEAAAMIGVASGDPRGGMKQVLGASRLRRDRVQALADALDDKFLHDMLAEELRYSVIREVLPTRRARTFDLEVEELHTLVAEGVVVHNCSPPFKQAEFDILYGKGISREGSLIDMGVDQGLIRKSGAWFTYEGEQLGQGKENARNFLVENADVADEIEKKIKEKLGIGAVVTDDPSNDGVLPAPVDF

Chain of Cytochrome P450 2D6 (P10635 whole entry): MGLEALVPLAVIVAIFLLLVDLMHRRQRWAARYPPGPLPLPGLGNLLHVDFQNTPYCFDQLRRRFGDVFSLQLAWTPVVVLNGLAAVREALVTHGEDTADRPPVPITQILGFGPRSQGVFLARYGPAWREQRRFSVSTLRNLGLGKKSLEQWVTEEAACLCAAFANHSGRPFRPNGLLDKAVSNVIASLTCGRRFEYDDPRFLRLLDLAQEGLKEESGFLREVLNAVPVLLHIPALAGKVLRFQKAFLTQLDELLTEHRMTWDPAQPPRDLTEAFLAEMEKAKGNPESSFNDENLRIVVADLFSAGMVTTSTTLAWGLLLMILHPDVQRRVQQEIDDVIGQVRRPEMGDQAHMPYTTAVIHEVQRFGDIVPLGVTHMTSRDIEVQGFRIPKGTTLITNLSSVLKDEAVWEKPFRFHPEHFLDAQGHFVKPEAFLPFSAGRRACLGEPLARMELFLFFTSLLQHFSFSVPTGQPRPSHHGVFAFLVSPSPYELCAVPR

Compound: CN1CCc2cccc(Cl)c2CC1
- AC50 [1]: 31.6 µM (inconclusive)

Compound: NC(=O)CS(=O)(=O)c1nc2ccccc2n1Cc1ccccc1F
- IC50 [2]: > 47.1 µM (inactive)
- EC50 [3]: > 53 µM (inactive)

Compound: Cc1nnc(SC(C(=O)Nc2cc(Cl)cc(Cl)c2)c2ccccc2)nc1O (centres undefined)
- EC50 [4]: 10.6 µM (active)
- EC50 [5]: > 150 µM (not active)

Compound: FC(F)(F)c1ccccc1-c1nc(NCCN2CCOCC2)c2ccccc2n1
- AC50 [1]: 31.6 µM (inconclusive)

Compound: Cc1cc(C(=O)COc2cccc3cccnc23)c(C)n1C
- IC50 [6]: 6.66 µM (active)
- EC50 [3]: > 53 µM (inactive)

Compound: O=C(c1n[nH]c(=O)c2ccccc12)N1CCN(C2c3ccccc3-c3ccccc32)CC1
- AC50 [1]: 31.6 µM (inconclusive)

Compound: Cc1cnc(CNc2nc(-c3ccccc3C(F)(F)F)nc3ccccc23)cn1
- AC50 [7]: 39.8 µM (inconclusive)
- AC50 [1]: 25.1 µM (inconclusive)

Compound: C[C@@H](C(=O)O)c1ccc(C(=O)c2ccccc2)s1
- AC50 [1]: 7.94 µM (inconclusive)
- AC50 [8]: 0.251 µM (inconclusive)
- AC50 [9]: 12.6 µM (inconclusive)
- AC50 [10]: 15.8 µM (inconclusive)

Compound: CCCCCCCCCCCCC(=O)N1CCCC[C@H]1CNC(=O)[C@@H](N)CCCCN
- AC50 [1]: 25.1 µM (inconclusive)
- AC50 [8]: 31.6 µM (inconclusive)
- AC50 [10]: 10 µM (inconclusive)

Compound: CCOc1ccc(C2C(C(=O)O)c3ccccc3C(=O)N2CCN2CCOCC2)cc1 (centres undefined)
- AC50 [1]: 25.1 µM (inconclusive)

Compound: CCOC(=O)c1nnc(-c2ccccc2)nc1N1CC(C)OC(C)C1 (centres undefined)
- IC50 [2]: > 47.1 µM (inactive)
- EC50 [3]: > 53 µM (inactive)

Compound: O=C(c1cc(C(F)(F)F)cc(C(F)(F)F)c1)N1CCC2(CCCN(c3ncccn3)C2)CC1
- AC50 [7]: 20 µM (inconclusive)
- AC50 [1]: 10 µM (inconclusive)
- AC50 [8]: 31.6 µM (inconclusive)
- AC50 [9]: 15.8 µM (inconclusive)

Compound: Fc1ccc(Br)cc1C1C=C(c2ccc(Br)cc2)Nc2ncnn21 (centres undefined)
- EC50 [3]: > 53 µM (inactive)

Compound: COc1ccc(CNC(=O)CCc2nc3cc(S(=O)(=O)N(C)C)ccc3n2C)cc1OC
- IC50 [2]: > 47.1 µM (inactive)
- EC50 [3]: > 53 µM (inactive)

Compound: Cc1cccc(CNc2ccnc(-c3cccc(C#N)c3)n2)c1
- AC50 [1]: 25.1 µM (inconclusive)
- AC50 [10]: 0.794 µM (inconclusive)

Compound: COc1cccc(-c2cncnc2NCc2cccnc2)c1
- AC50 [1]: 20 µM (inconclusive)

Compound: COc1ccc(CNC(=O)C(c2ccc(C)o2)N(C(=O)c2snc(C(N)=O)c2N)c2ccccc2OC)cc1 (centres undefined)
- AC50 [11]: > 380 µM (inactive)
- EC50 [12]: > 380 µM (inactive)

Compound: Clc1ccccc1-c1nc(NCCN2CCOCC2)c2ccccc2n1
- AC50 [7]: 25.1 µM (inconclusive)
- AC50 [1]: 20 µM (inconclusive)

Compound: O=C(Oc1ccccc1C(=O)Nc1ccccc1)c1ccccc1Br
- AC50 [11]: 7.25 µM (active)
- EC50 [12]: 8.13 µM (active)

Compound: CN(C)C(=O)c1ccc(-c2nccc(NCc3cccs3)n2)cc1
- AC50 [7]: 20 µM (inconclusive)
- AC50 [1]: 20 µM (inconclusive)

Compound: CCOc1cccc(NC(=O)CSc2nc(C)c3c(c2C#N)CCCC3)c1
- AC50 [7]: 0.178 µM (inconclusive)
- AC50 [1]: 0.0794 µM (inconclusive)

Compound: CCCc1n[nH]c2c1C(CCC)C(C#N)=C(N)O2 (centres undefined)
- AC50 [11]: 20.5 µM (active)
- EC50 [12]: 7.46 µM (active)

Compound: CC(Nc1ccc(Br)cc1)C(=O)Nc1cccc(S(=O)(=O)N2CCOCC2)c1 (centres undefined)
- IC50 [2]: > 47.1 µM (inactive)
- EC50 [3]: > 53 µM (inactive)

Compound: Cc1cc(C)c2c(-n3cccc3)nn(CC#N)c2n1
- AC50 [1]: 10 µM (inconclusive)
- AC50 [9]: 15.8 µM (inconclusive)
- AC50 [10]: 14.1 µM (inconclusive)

Compound: O=C(NCCc1ccccc1)c1cnc2ccccc2c1O
- EC50 [3]: > 53 µM (inactive)

Compound: COc1cc(/C=N\NC(=O)c2ccccc2F)ccc1Oc1ccc([N+](=O)[O-])cn1
- AC50 [11]: 133 µM (active)
- EC50 [12]: > 380 µM (inactive)

Compound: Cc1cc(-c2ccc(/C=N/n3cnnc3)o2)c([N+](=O)[O-])cc1C
- AC50 [1]: 11.2 µM (inconclusive)

Compound: Cc1nnc(N/N=C/c2cccc(OCc3ccc(Cl)c(Cl)c3)c2)n1N
- IC50 [6]: 5.42 µM (active)
- AC50 [11]: 8.86 µM (active)
- EC50 [12]: 4.81 µM (active)

Compound: C/C(=N\NC(=O)CC#N)c1cc2ccccc2oc1=O
- AC50 [11]: 3.44 µM (active)
- EC50 [12]: 2.97 µM (active)

Compound: O=C(O)[C@@H]1C[C@@H](C(=O)O)N1
- AC50 [1]: 39.8 µM (inconclusive)

Compound: N#C/C(=C\c1c[nH]c2ccccc12)C(=O)c1ccc(O)c(O)c1
- AC50 [7]: 31.6 µM (inconclusive)
- AC50 [1]: 25.1 µM (inconclusive)
- AC50 [10]: 31.6 µM (inconclusive)

Compound: CCCCCCCCCOc1ccc2[nH]cc(CCN)c2c1
- AC50 [1]: 25.1 µM (inconclusive)
- AC50 [9]: 39.8 µM (inconclusive)
- AC50 [10]: 25.1 µM (inconclusive)
